This is an account of results in article PMC7226613, “Antikinetoplastid Activity of Indolocarbazoles from Streptomyces sanyensis” (Biomolecules, 2020).

Like-named read-outs stand apart in the source and are kept apart here.

A short description of data set [1]: Cytotoxicity assay (AlamarBlue). Particulars: mouse. A general note: Alamar Blue is a resazurin reagent that responds to reducing activity.
Procedure: (§3) After 24 h, cell viability was determined using AlamarBlue® method [24]. Miltefosine (Cayman Chemicals, Vitro SA, Madrid, Spain) and benznidazole (Sigma-Aldrich, Madrid, Spain) were used as reference drugs.
(§4) All experiments were performed three times, in duplicates for each concentration tested, and the mean values were also calculated. A Tukey test was used for analysis of the data.
For data set [2], the system named is epimastigote of T. cruzi (Y strain). The experiment in a line: Trypanocidal capacity assay, epimastigotes (AlamarBlue). Particulars: 72 h; for IC50: Trypanosoma cruzi, read-out: T. cruzi IC50; for T. cruzi IC50: epimastigotes, mean ± SD.
Procedure: Epimastigotes were cultured in Liver Infusion Tryptose (LIT) medium supplemented with 10% FBS at 26 °C and were grown to the log phase for use in further experiments.
The assay was carried out in vitro against epimastigote stage of T. cruzi. […] Benznidazole (Sigma-Aldrich, Madrid, Spain) was used as a reference drug.
as §4
Data set [3] has as its system macrophage J774A.1 cell line. The experiment in a line: Cytotoxicity assay (AlamarBlue). Particulars: 24 h, AlamarBlue, mean ± SD.
Procedure: as §3, §4
Data set [4] concerns promastigotes of L. donovani. The experiment in a line: Microscopic morphology of treated promastigotes. Type of data set: cell-based, Leishmania donovani. Particulars: 10 µM; flagellar pocket increased, invagination of plasma membrane.
The test system of data set [5] is promastigotes of L. amazonensis (MHOM/BR/77/LTB0016). Description: Leishmanicidal capacity assay, promastigotes (AlamarBlue). Particulars: for IC50 / L. amazonensis IC50: promastigotes, 72 h, mean ± SD. Type of data set: cell-based, Leishmania amazonensis.
Data set [6] deals with promastigotes of L. donovani (MHOM/IN/90/GE1F8R). Described as above. Type of data set: cell-based, Leishmania donovani. Particulars: 72 h, mean ± SD; for IC50: Leishmania donovani.
The test system of data set [7] is L. donovani promastigotes. The experiment in a line: Mitochondrial membrane potential (JC-1). The class given is cell-based, Leishmania donovani. Particulars: IC90, 24 h. The method, then: (§1) The decrease in the mitochondrial membrane potential was detected using a JC-1 Mitochondrial Membrane, Potential Assay Kit, Cayman Chemical. […] The pellet was resuspended in JC-1 buffer. After that, 100 µL of each treated culture was added to a black 96-well plate (PerkinElmer) and 10 µL of JC-1 was added, and the plate was incubated for half an hour at 26 °C. Green and red fluorescence intensity was measured using an Enspire microplate reader (PerkinElmer, Massachusetts, USA) for 30 min. In addition, the depolarization of the mitochondrial membrane potential was confirmed by microscopic observation using EVOS FL Cell Imaging System AMF4300, Life Technologies, USA.

Data set [8] deals with L. amazonensis promastigotes. The experiment in a line: Mitochondrial membrane potential (JC-1). The class given is cell-based, Leishmania amazonensis. Particulars: IC90 (8.36 µM), 24 h. The procedure:
as §1

A further data set relates to T. cruzi epimastigotes. Description: Mitochondrial membrane potential (JC-1). Type of data set: cell-based, Trypanosoma cruzi. Particulars: IC90, 24 h. The method, then:
as §1

The next data set deals with L. amazonensis. Description: Plasma membrane permeability (SYTOX Green). The class given is cell-based, Leishmania amazonensis. Particulars: IC90, 24 h. The method, then:
(§2) The SYTOX® Green assay was performed to detect the membrane permeability alterations in parasites. […] SYTOX® Green was added at a final concentration of 1 μM (Molecular Probes).

For the next data set, the system named is L. donovani. The experiment in a line: Plasma membrane permeability (SYTOX Green). The class given is cell-based, Leishmania donovani. Particulars: IC90, 24 h. The method, then: as §2
Data set [9] deals with L. amazonensis amastigotes. Description: Anti-amastigote activity, intra-macrophage stage in J774A.1. Particulars: for Selectivity Index (CC50/IC50): CC50 J774A.1 / IC50 L. amazonensis amastigotes; for IC50: Leishmania amazonensis, J774.A1, read-out: L. Amazonensis Amastigotes IC50.
Procedure: The anti-amastigote activity was measured according to Jain et al. [26]. […] After one hour of incubation, 100 µL of stationary phase promastigotes of 7-day-old culture was added in a 10:1 ratio (2 × 10^6/mL) and the plates were re-incubated at 37 °C for 24 h to achieve a maximum infection. […] Separately, and in a 96-deep well plate, a serial dilution of the selected compounds was made with the same medium and then 50 μL of each dilution was added to each well. The plates were incubated at 37 °C, 5% CO2 for 24 h. After this incubation, we removed the medium from each well and 30 μL of Schneider medium containing 0.05% SDS was added to each well. The plate was shacked for 30 s and 170 μL of Schneider medium were added to each well. AlamarBlue® at 10% was added into each well and incubated at 26 °C for 72 h. […] Miltefosine (Cayman Chemicals, Vitro SA, Madrid, Spain) was used as reference drug.
as §4
In the next data set the test system is T. cruzi. The experiment in a line: Plasma membrane permeability (SYTOX Green). Type of data set: cell-based, Trypanosoma cruzi. Particulars: IC90, 24 h. The procedure: as §2
In a further data set the test system is protein kinase C (PKC). Particulars: cited from earlier work.
Another data set addresses protein kinase A (PKA). Particulars: cited from earlier work.
In another data set the target is phosphorylase kinase. Particulars: cited from earlier work.
Data set [10] concerns macrophage J774A.1 cell line.
Procedure: as §3, §4
A further data set is described as follows: in vitro. Particulars: mouse.

Procedure for in vitro: as §3, §4

The IC50 is the concentration that inhibits the measured activity by half. In data set [1] (J774A.1 macrophage cell line), `O=C(Cn1ccnc1[N+](=O)[O-])NCc1ccccc1` [Benznidazole] showed a CC50 at 24 h of 400 ± 4 µM. Also, the IC50 in [2] turned out to be 6.94 ± 1.94 µM.

With `CN[C@@H]1C[C@H]2O[C@@](C)([C@@H]1OC)n1c3ccccc3c3c4c(c5c6ccccc6n2c5c31)C(=O)NC4` [Compound 1, staurosporine], the CC50 in data set [3] (read-out: Macrophage J774A.1 CC50) came to 8.74 ± 0.72 µM. Moreover, the IC50 in [2] is 3.63 ± 0.77 µM.

In turn, `CN[C@@H]1C[C@H]2O[C@@](C)([C@@H]1OC)n1c3ccccc3c3c4c(c5c6ccccc6n2c5c31)C(=O)NC4=O` [Compound 2, 7-oxostaurosporine] yielded a CC50 at 24 h in [1] of 5.2 ± 1.75 µM. Moreover, the “morphological changes of parasites” value in data set [4] is recorded as “morphological changes”. Further, the half-inhibitory concentration (IC50) was 3.58 ± 1.1 µM in [5] (Leishmania amazonensis), 0.56 ± 0.06 µM in data set [6], 1.58 ± 0.52 µM in data set [2] and 0.1 µM in data set [9]. Moreover, the IC90 in data set [5] (Leishmania amazonensis, read-out: IC90 concentration, L. amazonensis promastigotes) is 8.36 µM. Further, the “effect on mitochondrial membrane potential (ΔΨm)” value is given as “did not observe any change” in data set [7], “intense effect” in data set [8] and “did not observe any change” with T. cruzi epimastigotes. For the same compound, the cytoplasmic membrane permeability entry in the data set with L. amazonensis was “does not seem to be permeable”; with L. donovani, “remarkable membrane alteration”; with T. cruzi it was “remarkable membrane alteration”. In addition, in [9], the “Selectivity Index (CC50/IC50)” value came to 52.

Take `CO[C@@H]1C(=O)C[C@H]2O[C@]1(C)n1c3ccccc3c3c4c(c5c6ccccc6n2c5c31)C(=O)NC4` [Compound 3, 4′-demethylamino-4′-oxostaurosporine]: in [1] (J774A.1 macrophage cell line), the CC50 at 24 h was above 40 µM. Besides, in data set [3], the “Macrophage J774A.1 CC50” value was “low toxicity”. Also, the IC50 was 17.1 ± 4.78 µM in data set [5] (Leishmania amazonensis), above 40 µM in data set [6], 17.1 ± 1.64 µM in data set [2] and 2.03 ± 0.27 µM in data set [9].

`COC1=C(C)O[C@@H]2C[C@@]1(OC)n1c3ccccc3c3c4c(c5c6ccccc6n2c5c31)C(=O)NC4` [Compound 4, streptocarbazole B] yielded a CC50 at 24 h in data set [1] (J774A.1 macrophage cell line) above 40 µM. Further, the “Macrophage J774A.1 CC50” value in data set [3] is recorded as “low toxicity”. In addition, the IC50 was 10.4 ± 0.21 µM in data set [5] (Leishmania amazonensis), above 40 µM in data set [6], 12.5 ± 2.06 µM in [2] and 2.47 ± 0.09 µM in data set [9].

In turn, `CO[C@H]1[C@H](O)[C@@H](O)[C@H](n2c3c(Cl)cccc3c3c4c(c5c6cccc(Cl)c6[nH]c5c32)C(=O)NC4=O)O[C@@H]1CO` [Compound 5, rebeccamycin] displayed a CC50 at 24 h in data set [1] (J774A.1 macrophage cell line) of 1.42 ± 0.19 µM. The compound also showed an IC50 in [5] (Leishmania amazonensis) above 40 µM. Further, the “L. amazonensis IC50” value in [5] is “completely inactive”. Further, in [6], the “L. donovani IC50” value is “completely inactive” and the IC50 was above 40 µM. The “inhibitory effect on PKC” value in the data set with protein kinase C (PKC) is “no inhibitory effect”. Besides, in data set [2], the IC50 was above 40 µM and the “T. cruzi IC50” value was “completely inactive”.

For the compound `COC(=O)[C@@]1(O)C[C@H]2O[C@]1(C)n1c3ccccc3c3c4c(c5c6ccccc6n2c5c31)C(=O)NC4` [Compound 6, K252a], in data set [1], the CC50 at 24 h was 1.07 ± 0.21 µM. Besides, the IC50 is 5.9 ± 0.96 µM in data set [5] (Leishmania amazonensis); 8.09 ± 1.12 µM in data set [6]; 0.14 µM at protein kinase A (PKA); 4 ± 0.24 µM in data set [2]; 0.0017 µM at phosphorylase kinase.

Turning to `C[C@]12O[C@H](C[C@]1(O)C(=O)O)n1c3ccccc3c3c4c(c5c6ccccc6n2c5c31)CNC4=O` [Compound 7, K252b], the figures for the IC50 in data set [5] (Leishmania amazonensis), in data set [6] and in [2] were 20.6 ± 4.5 µM, 4.45 ± 0.71 µM and 7.41 ± 0.93 µM, respectively. The “Macrophage J774A.1 CC50” value in data set [10] was “low toxicity”. This compound showed a CC50 at 24 h in the data set “in vitro” above 40 µM.

Turning to `O=C1NCc2c1c1c3ccccc3[nH]c1c1[nH]c3ccccc3c21` [Compound 8, K252c], the CC50 at 24 h in data set [1] (J774A.1 macrophage cell line) amounted to 35.4 ± 2.47 µM. The “Macrophage J774A.1 CC50” value in data set [3] is reported as “low toxicity”. Also, in [5] (Leishmania amazonensis), the IC50 was above 40 µM. In addition, the “L. amazonensis IC50” value in data set [5] is “completely inactive”. In data set [6], the “L. donovani IC50” value is “completely inactive” and the IC50 is above 40 µM. In addition, in [2], the IC50 is above 40 µM and the “T. cruzi IC50” value was “completely inactive”.

Regarding `O=C1NC(=O)c2c1c1c3ccccc3[nH]c1c1[nH]c3ccccc3c21` [Compound 9, arcyriaflavin A], the IC50 in [5] (Leishmania amazonensis), in [6] and in data set [2] was above 40 µM each time. Also, in data set [5], the “L. amazonensis IC50” value was “completely inactive”. Also, the “L. donovani IC50” value in data set [6] was “completely inactive”. Moreover, in [10], the “Macrophage J774A.1 CC50” value was “low toxicity”. Also, the CC50 at 24 h in the data set “in vitro” was above 40 µM. The “T. cruzi IC50” value in data set [2] is “completely inactive”.

As for `CCCCCCCCCCCCCCCCOP(=O)([O-])OCC[N+](C)(C)C` [Miltefosine], in [1] (J774A.1 macrophage cell line), the CC50 at 24 h came out at 72.2 ± 3.06 µM. This compound also gave a concentration for half-maximal inhibition (IC50) in [6] of 3.32 ± 0.27 µM. For the same compound, the “Selectivity Index (CC50/IC50)” value in [9] is reported as 23.
